Results: patent US6156754A, “Glycoconjugates of modified camptothecin derivatives (A-or B-ring linkage)” (Bayer Aktiengesellschaft, priority 1996, dated 2000)
In brackets after ≈: the same amount, converted by molar mass. Counter-ions that a name gives are not always drawn.

How the values were obtained:
[1] = In vivo inhibition of tumour growth in the nude mouse model (LXFL 529 xenograft); parameters: species or system human tumour in athymic nude mice (NMRI nu/nu); conditions: mouse, in vivo, ip; nude mice, i.p. day 1, 2, 3; read-out: maximum tolerable dose (MTD)
Protocol: (§1) 3. In Vivo Inhibition of Tumour Growth in the Nude Mouse Model
(§2) For all in vivo experiments for investigation of the inhibition of tumour growth athymic nude mice (NMRI nu/nu strain) were used. The selected large-cell lung carcinoma LXFL 529 was grown by serial passage in nude mice. The human origin of the tumour was confirmed by isoenzymatic and immunohistochemical methods.
(§3) The tumour was implanted subcutaneously into both flanks of 6 to 8 week old nu/nu nude mice. The treatment was started, depending on the doubling time, as soon as the tumours had reached a diameter of 5-7 mm. The mice were assigned to the treatment group and the control group (5 mice per group with 8-10 assessable tumours) by randomization. The individual tumours of the control group all grew progessively.
(§4) The size of the tumours was measured in two dimensions by means of a slide gauge. The tumour volume, which correlated well with the cell count, was then used for all evaluations. The volume was calculated according to the formula "length×breadth×breadth/2" ([a×b^2 ]/2, a and b represent two diameters at right angles).
(§5) The values of the relative tumour volume (RTV) were calculated for each individual tumour by dividing the tumour size on day X with the tumour size on day 0 (at the time of randomization). The mean values of the RTV were then used for the further evaluation.
(§6) The inhibition of the increase of the tumour volume (tumour volume of the test group/control group, T/C, in per cent) was the final measured value.
(§7) The administration of the compounds was carried out intraperitoneally (i.p.) on day 1, 2 and 3 after randomization.

[2] = tested on: large-cell lung carcinoma LXFL 529; test: as above; parameters: species or system human tumour in athymic nude mice (NMRI nu/nu); conditions: for Relative body weight on day 7 / Relative tumour volume on day 14 / Survival time: i.p. day 1, 2, 3; for Relative body weight on day 7: control 102; for Relative tumour volume on day 14: control 691; for Survival time: each of five mice
Protocol: as §1, §2, §3, §4, §5, §6, §7

B16F10 = test: Growth inhibition (MTT) test, cytotoxic action on B16F10; assay type: cell-based, mouse; conditions: B16F10 cell line, growth checked after day 3 and day 6
Protocol: (§8) 1. Growth Inhibition Test for the Determination of the Cytotoxic Properties
(§9) The human large intestine cell lines SW 480 and HT 29 (ATCC No. CCL 228 and HBT 38) and the mouse melanoma cell line B 16 F 10 were grown in Roux dishes in RPMI 1640 medium with addition of 10% FCS. They were then trypsinized and taken up in RPMI plus 10% FCS to a cell count of 50,000 cells/ml. 100 μl of cell suspension/well were added to a 96 microwell plate and incubated for 1 day at 37° C. in a CO2 incubator. A further 100 μl of RPMI Medium and 1 μl of DMSO containing the test substances were then added. The growth was checked after day 3 and day 6. To this end, 40 μl of MTT solution (3-(4,5-dimethylthiazol-2-yl)-2,5-diphenyl-tetrazolium bromide) having a starting concentration of 5 mg/ml of H2 O were added to each microwell. Incubation was carried out for 5 hours in a CO2 incubator at 37° C. The medium was then aspirated and 100 μl of i-propanol/well were added. After shaking for 30 min with 100 μl of H2 O, the extinction was measured at 540 nm using a Titertek Multiscan MCC/340 (Flow).
(§10) The cytotoxic action is indicated in Table 1 as the IC50 value (dose which inhibits the cell growth to 50% of the cell growth of the control) in each case for the SW 480 and HT 29 and B16F10 cell lines: […]

SW 480 = test: Growth inhibition (MTT) test, cytotoxic action on SW 480; assay type: cell-based, human; conditions: SW 480 cell line, growth checked after day 3 and day 6
Protocol: as §8, §9, §10

HT 29 = test: Growth inhibition (MTT) test, cytotoxic action on HT 29; assay type: cell-based, human; conditions: HT 29 cell line, growth checked after day 3 and day 6
Protocol: as §8, §9, §10

Bone marrow cells = test: Haematopoietic activity: bone marrow stem cell colony formation; assay type: cell-based, mice
Protocol: 2. Haematopoietic Activity of Glycoconjugates in Comparison with the Underlying Active Compound
Bone marrow cells are washed out of mice femurs. 10^5 cells are incubated at 37° C. and 7% CO2 in McCoy 5A medium (0.3% agar) together with recombinant murine GM-CSF (Genzyme; stem cell colony formation) and the substances (10^-4 to 100 μg/ml). 7 days later, the colonies ([…]) and clusters (17-50 cells) are counted.
As shown in Tab. 2 with reference to Example 2.1, the glycoconjugates investigated show, compared with the underlying active compound, an inhibition of the bone marrow stem cell proliferation which is reduced approximately by the factor 100.

Q: What does the source list for `CC[C@@]1(O)C(=O)OCc2c1cc1n(c2=O)Cc2c-1nc1ccccc1c2COC(=O)[C@H](C)NC(=O)[C@H](CCCCNC(=S)Nc1ccc(O[C@H]2O[C@@H](C)[C@@H](O)[C@@H](OC)[C@@H]2O)cc1)NC(=S)Nc1ccc(O[C@H]2O[C@@H](C)[C@@H](O)[C@@H](OC)[C@@H]2O)cc1` [Example 1.1, 7-{N^α,N^ε -bis-[O-(3-O-Methyl-β-L-fucopyranosyl)-4-hydroxy-phenylaminothiocarbonyl]-L-lysyl-L-alanyloxymethyl}-camptothecin]?
A: MTD [1]: 12.5 mg/kg/day; Relative body weight on day 7 ([2]; 3.125 mg/kg/day): 93 % of day 0; Relative tumour volume on day 14 ([2]; 3.125 mg/kg/day): 0.1 % of day 0; Survival time ([2]; 3.125 mg/kg/day): > 21 days; Relative body weight on day 7 ([2]; 6.25 mg/kg/day): 93 % of day 0; Relative tumour volume on day 14 ([2]; 6.25 mg/kg/day): 0.1 % of day 0; Survival time ([2]; 6.25 mg/kg/day): > 21 days; Relative body weight on day 7 ([2]; 12.5 mg/kg/day (MTD)): 72 % of day 0; Relative tumour volume on day 14 ([2]; 12.5 mg/kg/day (MTD)): 0.1 % of day 0; Survival time ([2]; 12.5 mg/kg/day (MTD)): > 21 days; therapeutic efficacy (remission of the tumour) ([2]; at MTD, 1/2 MTD and 1/4 MTD): complete remission of the tumour; IC50 (B16F10): 0.18 nM; IC50 (SW 480): 0.015 nM; IC50 (HT 29): 0.025 nM

Q: What does the source list for `CCC1(O)C(=O)OCc2c1cc1n(c2=O)Cc2c-1nc1cc3c(cc1c2CN1CCN(C(=O)[C@H](C)NC(=O)[C@H](CCCCN)NC(=S)Nc2ccc(O[C@H]4O[C@@H](C)[C@@H](O)[C@@H](OCC(=O)O)[C@@H]4O)cc2)CC1)OCCO3` (mixture of isomers) [Example 3.3, 10,11-(Ethylenedioxy)-7-{1-[N^α -(O-(3-O-carboxymethyl-β-L-fucopyranosyl)-4-hydroxy-phenylaminothiocarbonyl]-L-lysyl-L-alanyl]-piperazin-4-yl-methyl}-20(R/S)-camptothecin, hydrochloride]?
A: IC50 (SW 480): 0.25 nM; IC50 (HT 29): 0.1 nM

Q: What does the source list for `CC[C@@]1(O)C(=O)OCc2c1cc1n(c2=O)Cc2c-1nc1ccccc1c2COC(=O)[C@@H](NC(=O)[C@H](CCCCN)NC(=S)Nc1ccc(O[C@H]2O[C@@H](C)[C@@H](O)[C@@H](OCC(=O)O)[C@@H]2O)cc1)C(C)C` [Example 1.3, 7-{N^α -[O-(3-O-Carboxymethyl-β-L-fucopyranosyl)-4-hydroxy-phenylamino-thiocarbonyl]-L-lysyl-L-valyloxymethyl}-camptothecin, hydrochloride]?
A: IC50 (SW 480): 0.04 nM; IC50 (HT 29): 0.03 nM

Q: Which results are given for `CC[C@@]1(O)C(=O)OCc2c1cc1n(c2=O)Cc2cc3c(NC(=O)[C@H](C)NC(=O)[C@H](CCCCNC(=S)Nc4ccc(O[C@H]5O[C@@H](C)[C@@H](O)[C@@H](OC)[C@@H]5O)cc4)NC(=S)Nc4ccc(O[C@H]5O[C@@H](C)[C@@H](O)[C@@H](OC)[C@@H]5O)cc4)cccc3nc2-1` [Example 2.1, 9-{N^α,N^ε -bis-[O-(3-O-Methyl-β-L-fucopyranosyl)-4-hydroxy-phenylamino-thiocarbonyl]-L-lysyl-L-alanyl-amino}-camptothecin]?
A: reduction of inhibition of bone marrow stem cell proliferation compared with the underlying active compound (factor) (Bone marrow cells; glycoconjugate vs underlying active compound (2.1.a)): ~100; IC50 (inhibition of bone marrow stem cell proliferation) (Bone marrow cells; mouse bone marrow cells with GM-CSF, 7 days): 170 ng/mL; IC50 (B16F10): 2 nM; IC50 (SW 480): 0.2 nM; IC50 (HT 29): 0.06 nM

Q: With `CC[C@@]1(O)C(=O)OCc2c1cc1n(c2=O)Cc2cc3c(N)cccc3nc2-1` [Example 2.1.a, 9-Amino-camptothecin, reference compound] as the compound, how does the IC50 (Bone marrow cells; Bone marrow cell, 168 h, mouse bone marrow cells with GM-CSF, 7 days, read-out: IC50 (inhibition of bone marrow stem cell proliferation)) read?
A: 1.6 ng/mL (≈ 4.4 nM)

Q: Which results are given for `CC[C@@]1(O)C(=O)OCc2c1cc1n(c2=O)Cc2c-1nc1ccccc1c2COC(=O)[C@@H](NC(=O)[C@H](CCCCN)NC(=S)Nc1ccc(O[C@H]2O[C@@H](C)[C@@H](O)[C@@H](OC)[C@@H]2O)cc1)C(C)C` [Example 1.4, 7-{N^α -[O-(3-O-Methyl-β-L-fucopyranosyl)-4-hydroxy-phenylamino-thiocarbonyl)-L-lysyl-L-valyoxymethyl}-camptothecin, Hydrochloride]?
A: IC50 (B16F10): 0.2 nM; IC50 (SW 480): 0.03 nM; IC50 (HT 29): 0.04 nM

Q: Which IC50 (B16F10) does the source give for `CCC1(O)C(=O)OCc2c1cc1n(c2=O)Cc2c-1nc1cc3c(cc1c2CN1CCN(C(=O)[C@H](C)NC(=O)[C@H](CCCCNC(=S)Nc2ccc(O[C@H]4O[C@@H](C)[C@@H](O)[C@@H](OC)[C@@H]4O)cc2)NC(=S)Nc2ccc(O[C@H]4O[C@@H](C)[C@@H](O)[C@@H](OC)[C@@H]4O)cc2)CC1)OCCO3` (mixture of isomers) [Example 3.1] here?
A: 0.5 nM

Q: And the IC50 (SW 480)?
A: 0.08 nM

Q: What about the IC50 (HT 29) of the same compound?
A: 0.06 nM
